Tests used:
[1] = system: HCC 2998; experiment: Growth inhibition of human HCC2998 cells incubated for 48 hrs by sulforhodamine B assay; format: functional, cell-based; conditions: HCC 2998, 48 h
[2] = system: U-251; experiment: Growth inhibition of human U251 cells assessed as cell growth at 0.1 uM incubated for 48 hrs by sulforhodamine B assay relative to control; format: functional; conditions: U-251, 48 h, read-out: Activity
[3] = system: OVCAR-5; experiment: Growth inhibition of human OVCAR5 cells incubated for 48 hrs by sulforhodamine B assay; format: functional, cell-based; conditions: OVCAR-5, 48 h
[4] = system: SK-MEL-2; experiment: Growth inhibition of human SK-MEL-2 cells assessed as cell growth at 100 uM incubated for 48 hrs by sulforhodamine B assay relative to control; format: functional; conditions: SK-MEL-2, 48 h, read-out: Activity
[5] = system: NCI-H23; experiment: Growth inhibition of human NCI-H23 cells incubated for 48 hrs by sulforhodamine B assay; format: functional, cell-based; conditions: NCI-H23, 48 h
[6] = system: A549; experiment: Growth inhibition of human A549/ATCC cells assessed as cell growth at 1 uM incubated for 48 hrs by sulforhodamine B assay relative to control; format: functional; conditions: A549, 48 h, read-out: Activity
[7] = system: NCI-H322M; experiment: Growth inhibition of human NCI-H322M cells assessed as cell growth at 1 uM incubated for 48 hrs by sulforhodamine B assay relative to control; format: functional; conditions: read-out: Activity
[8] = system: PC-3; experiment: Growth inhibition of human PC3 cells assessed as cell growth at 0.1 uM incubated for 48 hrs by sulforhodamine B assay relative to control; format: functional; conditions: PC-3, 48 h, read-out: Activity
[9] = system: SK-MEL-5; experiment: Growth inhibition of human SK-MEL-5 cells assessed as cell growth at 0.1 uM incubated for 48 hrs by sulforhodamine B assay relative to control; format: functional; conditions: SK-MEL-5, 48 h, read-out: Activity
[10] = system: SK-MEL-28; experiment: Growth inhibition of human SK-MEL-28 cells assessed as cell growth at 100 uM incubated for 48 hrs by sulforhodamine B assay relative to control; format: functional; conditions: SK-MEL-28, 48 h, read-out: Activity
[11] = system: PC-3; experiment: Growth inhibition of human PC3 cells assessed as cell growth at 0.01 uM incubated for 48 hrs by sulforhodamine B assay relative to control; format: functional; conditions: PC-3, 48 h, read-out: Activity
[12] = system: MDA-MB-435; experiment: Growth inhibition of human MDA-MB-435 cells assessed as cell growth at 100 uM incubated for 48 hrs by sulforhodamine B assay relative to control; format: functional; conditions: MDA-MB-435, 48 h, read-out: Activity
[13] = system: SK-MEL-2; experiment: Growth inhibition of human SK-MEL-2 cells assessed as cell growth at 0.1 uM incubated for 48 hrs by sulforhodamine B assay relative to control; format: functional; conditions: SK-MEL-2, 48 h, read-out: Activity
[14] = system: MDA-MB-468; experiment: Growth inhibition of human MDA-MB-468 cells assessed as cell growth at 0.1 uM incubated for 48 hrs by sulforhodamine B assay relative to control; format: functional; conditions: MDA-MB-468, 48 h, read-out: Activity
[15] = system: BT-549; experiment: Growth inhibition of human BT549 cells incubated for 48 hrs by sulforhodamine B assay; format: functional, cell-based; conditions: BT-549, 48 h
[16] = system: NCI-H522; experiment: Growth inhibition of human NCI-H522 cells assessed as cell growth at 1 uM incubated for 48 hrs by sulforhodamine B assay relative to control; format: functional; conditions: NCI-H522, 48 h, read-out: Activity
[17] = system: LOX IMVI; experiment: Growth inhibition of human LOXIMVI cells assessed as cell growth at 0.01 uM incubated for 48 hrs by sulforhodamine B assay relative to control; format: functional; conditions: read-out: Activity
[18] = system: SN12C; experiment: Growth inhibition of human SN12C cells assessed as cell growth at 0.01 uM incubated for 48 hrs by sulforhodamine B assay relative to control; format: functional; conditions: read-out: Activity
[19] = system: UACC-62; experiment: Growth inhibition of human UACC62 cells incubated for 48 hrs by sulforhodamine B assay; format: functional, cell-based; conditions: UACC-62, 48 h
[20] = system: IGROV-1; experiment: Growth inhibition of human IGROV1 cells assessed as cell growth at 1 uM incubated for 48 hrs by sulforhodamine B assay relative to control; format: functional; conditions: IGROV-1, 48 h, read-out: Activity
[21] = system: HL-60(TB); experiment: Growth inhibition of human HL-60(TB) cells assessed as cell growth at 0.01 uM incubated for 48 hrs by sulforhodamine B assay relative to control; format: functional; conditions: HL-60, 48 h, read-out: Activity
[22] = system: SR; experiment: Growth inhibition of human SR cells assessed as cell growth at 1 uM incubated for 48 hrs by sulforhodamine B assay relative to control; format: functional; conditions: read-out: Activity
[23] = system: HT-29; experiment: Growth inhibition of human HT-29 cells assessed as cell growth at 0.01 uM incubated for 48 hrs by sulforhodamine B assay relative to control; format: functional; conditions: HT-29, 48 h, read-out: Activity
[24] = system: SK-MEL-5; experiment: Growth inhibition of human SK-MEL-5 cells assessed as cell growth at 0.01 uM incubated for 48 hrs by sulforhodamine B assay relative to control; format: functional; conditions: SK-MEL-5, 48 h, read-out: Activity
[25] = system: A549; experiment: Growth inhibition of human A549/ATCC cells assessed as cell growth at 0.01 uM incubated for 48 hrs by sulforhodamine B assay relative to control; format: functional; conditions: A549, 48 h, read-out: Activity
[26] = system: UACC-257; experiment: Growth inhibition of human UACC257 cells assessed as cell growth at 1 uM incubated for 48 hrs by sulforhodamine B assay relative to control; format: functional; conditions: UACC-257, 48 h, read-out: Activity
[27] = system: HOP-62; experiment: Growth inhibition of human HOP62 cells assessed as cell growth at 100 uM incubated for 48 hrs by sulforhodamine B assay relative to control; format: functional; conditions: HOP-62, 48 h, read-out: Activity
[28] = system: 786-0; experiment: Growth inhibition of human 786-0 cells assessed as cell growth at 100 uM incubated for 48 hrs by sulforhodamine B assay relative to control; format: functional; conditions: 786-0, 48 h, read-out: Activity
[29] = system: PC-3; experiment: Growth inhibition of human PC3 cells assessed as cell growth at 1 uM incubated for 48 hrs by sulforhodamine B assay relative to control; format: functional; conditions: PC-3, 48 h, read-out: Activity
[30] = system: MCF7; experiment: Growth inhibition of human MCF7 cells assessed as cell growth at 100 uM incubated for 48 hrs by sulforhodamine B assay relative to control; format: functional; conditions: MCF7, 48 h, read-out: Activity
[31] = system: SR; experiment: Growth inhibition of human SR cells assessed as cell growth at 0.01 uM incubated for 48 hrs by sulforhodamine B assay relative to control; format: functional; conditions: read-out: Activity
[32] = read-out: LC50 (the source's name)
[33] = read-out: pLC50 (the source's name) (converted)

Q: `COc1cc(Cl)cc(-c2nn(-c3cccc(NC(=O)Nc4ccc(Cl)c(Cl)c4)c3)cc2-c2ccncc2)c1` was tested. Which GI50 ([1]; read-out: GI50) did it give?
A: The GI50 was 3.16 µM.

Q: What about the CC50 [1, 32] of the same molecule?
A: Its CC50 is over 100 µM.

Q: And the TGI ([1]; read-out: TGI)?
A: Its TGI is 35.8 µM.

Q: And the GI50 ([1]; read-out: pGI50 (converted))?
A: The GI50 was 3.16 µM.

Q: What about the CC50 [1, 33] of the same molecule?
A: Its CC50 is over 100 µM.

Q: What about the TGI ([1]; read-out: pTGI (converted)) of the same molecule?
A: The TGI was 37.2 µM.

Q: What about the growth at 0.1 µM [2] of the same molecule?
A: Its growth at 0.1 µM is 92%.

Q: What about the GI50 ([3]; read-out: GI50) of the same molecule?
A: The GI50 was 4.3 µM.

Q: What about the CC50 [3, 32] of the same molecule?
A: The CC50 was over 100 µM.

Q: And the TGI ([3]; read-out: TGI)?
A: The TGI was over 100 µM.

Q: What about the GI50 ([3]; read-out: pGI50 (converted)) of the same molecule?
A: Its GI50 is 4.37 µM.

Q: And the CC50 [3, 33]?
A: Its CC50 is over 100 µM.

Q: And the TGI ([3]; read-out: pTGI (converted))?
A: The TGI was over 100 µM.

Q: What about the growth at 100 µM [4] of the same molecule?
A: The growth at 100 µM was -70%.

Q: And the LC50 ([5]; read-out: LC50)?
A: The LC50 was over 100 µM.

Q: And the GI50 ([5]; read-out: pGI50 (converted))?
A: Its GI50 is 2.63 µM.

Q: What about the LC50 ([5]; read-out: pLC50 (converted)) of the same molecule?
A: The LC50 was over 100 µM.

Q: What about the TGI ([5]; read-out: pTGI (converted)) of the same molecule?
A: Its TGI is 9.12 µM.

Q: What about the growth at 1 µM [6] of the same molecule?
A: The growth at 1 µM was 82%.

Q: What about the growth at 1 µM [7] of the same molecule?
A: Its growth at 1 µM is 88%.

Q: What about the growth at 0.1 µM [8] of the same molecule?
A: The growth at 0.1 µM was 98%.

Q: And the growth at 0.1 µM [9]?
A: Its growth at 0.1 µM is 96%.

Q: And the growth at 100 µM [10]?
A: Its growth at 100 µM is -7%.

Q: And the growth at 0.01 µM [11]?
A: Its growth at 0.01 µM is 96%.

Q: And the growth at 100 µM [12]?
A: The growth at 100 µM was -33%.

Q: What about the growth at 0.1 µM [13] of the same molecule?
A: Its growth at 0.1 µM is 54%.

Q: And the growth at 0.1 µM [14]?
A: The growth at 0.1 µM was 97%.

Q: And the GI50 ([15]; read-out: GI50)?
A: The GI50 was 2.52 µM.

Q: What about the CC50 [15, 32] of the same molecule?
A: Its CC50 is over 100 µM.

Q: And the TGI ([15]; read-out: TGI)?
A: Its TGI is 62.5 µM.

Q: What about the GI50 ([15]; read-out: pGI50 (converted)) of the same molecule?
A: Its GI50 is 2.63 µM.

Q: What about the CC50 [15, 33] of the same molecule?
A: The CC50 was over 100 µM.

Q: What about the TGI ([15]; read-out: pTGI (converted)) of the same molecule?
A: The TGI was 8.32 µM.

Q: What about the growth at 1 µM [16] of the same molecule?
A: Its growth at 1 µM is 60%.

Q: And the growth at 0.01 µM [17]?
A: The growth at 0.01 µM was 96%.

Q: And the growth at 0.01 µM [18]?
A: Its growth at 0.01 µM is 97%.

Q: What about the IC50 [19] of the same molecule?
A: The IC50 was 2.4 µM.

Q: And the GI50 ([19]; read-out: GI50)?
A: Its GI50 is 2.4 µM.

Q: And the CC50 [19, 32]?
A: The CC50 was over 100 µM.

Q: What about the TGI ([19]; read-out: TGI) of the same molecule?
A: Its TGI is 16.3 µM.

Q: What about the GI50 ([19]; read-out: pGI50 (converted)) of the same molecule?
A: The GI50 was 2.4 µM.

Q: What about the CC50 [19, 33] of the same molecule?
A: Its CC50 is over 100 µM.

Q: What about the TGI ([19]; read-out: pTGI (converted)) of the same molecule?
A: The TGI was 16.2 µM.

Q: And the growth at 1 µM [20]?
A: Its growth at 1 µM is 102%.

Q: And the growth at 0.01 µM [21]?
A: The growth at 0.01 µM was 99%.

Q: What about the growth at 1 µM [22] of the same molecule?
A: Its growth at 1 µM is 68%.

Q: What about the growth at 0.01 µM [23] of the same molecule?
A: The growth at 0.01 µM was 103%.

Q: And the growth at 0.01 µM [24]?
A: The growth at 0.01 µM was 95%.

Q: And the growth at 0.01 µM [25]?
A: Its growth at 0.01 µM is 99%.

Q: What about the growth at 1 µM [26] of the same molecule?
A: The growth at 1 µM was 80%.

Q: What about the growth at 100 µM [27] of the same molecule?
A: Its growth at 100 µM is 12%.

Q: What about the growth at 100 µM [28] of the same molecule?
A: Its growth at 100 µM is -46%.

Q: What about the growth at 1 µM [29] of the same molecule?
A: The growth at 1 µM was 54%.

Q: And the growth at 100 µM [30]?
A: The growth at 100 µM was -13%.

Q: What about the growth at 0.01 µM [31] of the same molecule?
A: Its growth at 0.01 µM is 94%.

From ChEMBL document CHEMBL4308841, “Synthesis, in vitro antiproliferative activity, and kinase inhibitory effects of pyrazole-containing diarylureas and diarylamides” (Eur J Med Chem, 2018)
